{"source": "paper PMC12346692", "about": "“SUL-150 Limits Vascular Remodeling and Ventricular Failure in Pulmonary Arterial Hypertension” (International Journal of Molecular Sciences, 2025)", "key": {"pulmonary artery rings [1]": {"tested_on": "pulmonary artery rings", "experiment": "Ex vivo myography of pulmonary artery rings, acute SUL-150 pre-incubation, phenylephrine-induced vasoconstriction", "set-up": "species or system rat", "details": "vehicle pre-incubation; for EC50: Rattus norvegicus", "description": "The fourth-degree branching intralobar pulmonary arteries were carefully dissected under a Leica S4E stereomicroscope as described before. Arterial ring segments (2 mm length) were mounted in a Mulvany-type wire myograph system (model #610M, Danish Myo Technology, Aarhus, Denmark) using Ø40 µm steel wire. Rings were preserved in myography chambers filled with aerated Krebs buffer (pH 7.4) at 37 °C. After 20 min equilibration, rings were stretched to 1.8 kPa using the DMT Normalization Procedure and allowed to equilibrate for an additional 20 min. Analogue–digital signal conversion was performed using PowerLab 8/30, and a myogram was recorded in PowerLab Chart v 5.3 (AD Instruments, Oxford, UK). To assess the acute effects of SUL-150 on vasoconstriction, arterial rings were pre-constricted with 60 mM KCl and, following washout and stabilization, incubated with vehicle (0.1% DMSO) or SUL-150 (10^−4 M) for 20 min. Next, constriction responses to phenylephrine (phenylephrine, Sigma-Aldrich, St. Louis, MO, USA) were recorded in the dose range of 3 × 10^−9 to 3 × 10^−5 M. To assess the chronic effects of SUL-150 treatment, a similar protocol was followed, leaving out the preincubation with vehicle or SUL-150. Isometric responses were calculated as % of maximal KCl-induced constriction, and dose–response curves were recorded to determine the efficacy (Emax) and potency (EC50) of phenylephrine to induce vasoconstriction."}, "pulmonary artery rings [2]": {"tested_on": "pulmonary artery rings", "experiment": "Ex vivo myography of pulmonary artery rings after chronic SUL-150 administration, phenylephrine-induced vasoconstriction", "format": "in vivo, rat", "details": "for EC50: Rattus norvegicus, 840 h"}, "[3]": {"tested_on": "neonatal rat cardiomyocytes", "experiment": "In vitro hypertrophy reporter assay in phenylephrine-treated cardiomyocytes", "format": "cell-based", "details": "vehicle pre-incubation, phenylephrine 24 h", "description": "Cultures of neonatal rat cardiomyocytes were prepared from 1–3-day-old Wistar rats and adenovirally transformed with hypertrophy reporter construct as described elsewhere. Cardiomyocytes were pre-incubated with SUL-150 (3 × 10^−5 M) or vehicle for 30 min and subsequently stimulated with phenylephrine in the dose range of 10^−8 to 10^−4 M for 24 h. Cells were lysed in passive lysis buffer (Promega, Madison, WI, USA), and […] intensity of the lysate was recorded in an EnVision 2102 plate reader (Perkin Elmer, Waltham, MA, USA)."}, "[4]": {"details": "pulmonary artery rings of PAH rats"}, "[5]": {"details": "pulmonary artery rings of sham rats"}, "[6]": {"details": "rings of sham control rats (day 35, chronic study)"}, "[7]": {"details": "rings of vehicle-treated PAH rats (day 35, chronic study)"}}}
{"smiles": "CNC[C@H](O)c1cccc(O)c1", "note": "[phenylephrine]", "values": [{"measurement": "EC50", "setting": "pulmonary artery rings [1]; [4]", "result": 1080, "unit": "nM"}, {"measurement": "EC50", "setting": "pulmonary artery rings [1]; [5]", "result": 174, "unit": "nM"}, {"measurement": "Emax of phenylephrine-induced vasoconstriction", "setting": "pulmonary artery rings [1]; [4]", "result": "43.4 % of max"}, {"measurement": "Emax of phenylephrine-induced vasoconstriction", "setting": "pulmonary artery rings [1]; [5]", "result": "34.7 % of max"}, {"measurement": "EC50", "setting": "pulmonary artery rings [2]; [6]", "result": 89.8, "unit": "nM"}, {"measurement": "EC50", "setting": "pulmonary artery rings [2]; [7]", "result": 1240, "unit": "nM"}, {"measurement": "Emax of phenylephrine-induced vasoconstriction", "setting": "pulmonary artery rings [2]; [6]", "result": "33.0 ± 2.3 % of max"}, {"measurement": "Emax of phenylephrine-induced vasoconstriction", "setting": "pulmonary artery rings [2]; [7]", "result": "71.9 ± 9.2 % of max"}, {"measurement": "EC50", "setting": "[3]; Rattus norvegicus, Cardiomyocyte", "result": 1520, "unit": "nM"}, {"measurement": "Emax of phenylephrine in hypertrophy reporter", "setting": "[3]", "result": 3.93, "unit": "RFU"}]}
